# Assay results published in patent US20240376120A1, “CAMPTOTHECIN COMPOUND, PREPARATION METHOD THEREFOR AND USE THEREOF” (priority 2021, published 2024).
# Where a name gives a salt, the structure may show the parent alone. Read-outs that look alike come from different tables or passages of the source.
# Columns and labels:
# [1] = tested on: MCF-7 cells (human breast cancer cells); experiment: MCF-7 cell proliferation inhibitory assay (CellTiter-Glo); format: cell-based
# Description: • 1). […] Resuspend an appropriate amount of cell suspension to 4000 cells/100 μL according to the count, mixed well and then put the corresponding number of cells into a 96-well plate by pipette. • 3). Each hole of the edge was sealed with 100 μL DPBS and put into an incubator for culture. • 4). Day 1 drug addition: Prepare the storage solution of the compound to be tested 1 hour in advance. 24 h after plating, the culture medium was gradiently diluted to a concentration twice the final concentration of each group. Take out the plated cells from the incubator and add 100 μL of the corresponding 2-fold concentration medium to each well by pipette.
# Day 1 detected: Take out the plate to be tested and an appropriate amount of CTG in advance and rewarm it at room temperature in the dark. 50 μL of CTG was added to each well at 24 h. Shake with the oscillator for 5 minutes, and after balancing in the dark for 5 minutes, detect the luminescence value with a microplate reader; The mixture was shaken for 5 min, and after equilibration in the dark for 5 min, the luminescence value was detected with ELISA. • 6). Day 4 detection: Take an appropriate amount of CTG 1 h in advance and rewarm it at room temperature in the dark. At the same time, take out the plate to be tested from the incubator and leave it to equilibrate at room temperature for 30 minutes; 72 h after adding the drug, 100 μL of culture medium was sucked out with pipette carefully from each cell well, and 50 μL of CTG was added. The mixture was shaken for 5 min, and after equilibration in the dark for 5 min, the luminescence value was detected with ELISA analyzer. • 7). Data analysis and processed.
# Collect data and convert it into survival rate: Inhibition rate (%)=(100−(OD value of compound-OD value on the first day)/(OD value of control well-OD value on the first day))×100%
# (§1) Input the compound into graphpad prism to obtain the corresponding IC50 value.
# [2] = tested on: MDA-MB-231 cells (human breast cancer cells); experiment: MDA-MB-231 cell proliferation inhibitory assay (CellTiter-Glo); format: cell-based
# Description: (§2) • 1). […] Resuspend an appropriate amount of cell suspension to 3000 cells/100 μL according to the count, mixed well and then put the corresponding number of cells into a 96-well plate by pipette. • 3). Each hole of the edge was sealed with 100 μL DPBS and put into an incubator for culture. • 4). Day 1 drug addition: Prepare the storage solution of the compound to be tested 1 hour in advance. 24 h after plating, the culture medium was gradiently diluted to a concentration twice the final concentration of each group. Take out the plated cells from the incubator and add 100 μL of the corresponding 2-fold concentration medium to each well by pipette. • 5). Day 1 detected: Take out an appropriate amount of CTG 1 h in advance and the plate was allowed to equilibrate at room temperature for 30 min. 100 μL of CTG was added to each well and shaken for 5 mins, and then standed in the dark for 5 mins, the luminescence value was detected by ELISA. • 6). Day 4 detection: Take an appropriate amount of CTG 1 h in advance and rewarm it at room temperature in the dark. At the same time, take out the plate to be tested from the incubator and leave it to equilibrate at room temperature for 30 minutes; 72 h after adding the drug, 100 μL of culture medium was sucked out with pipette carefully from each cell well, and 100 μL of CTG was added. The mixture was shaken for 5 min, and after equilibration in the dark for 5 min, the luminescence value was detected with ELISA. • 7). Analyze data and write detailed experimental records.
# as §1
# [3] = tested on: MDA-MB-435s cells (human melanoma cells); experiment: MDA-MB-435s cell proliferation inhibitory assay (CellTiter-Glo); format: cell-based
# Description: as §2
# Collect data and convert it into survival rate: Inhibition rate (%)=(100−(OD value of compound−OD value on the first day)/(OD value of control well-OD value on the first day))×100%
# as §1
# [4] = tested on: Caco-2 cells (human colorectal adenocarcinoma cells)
# Description: (§3) Day 0 plated: After digesting the target cells in the logarithmic growth phase, make a single cell suspension and count. • 2). Took out the corresponding number of transwell chambers and placed them in a 24-well plate, added 200 μL PBS to the upper chamber, incubated for 10 mins, and removed the PBS from the upper chamber by pipette. • 3). According to the count, took an appropriate amount of cell suspension and resuspended it to 5000 cells/200 μL, mixed well and added it to the upper chamber of the transwell, and added 600 μL of complete culture medium to the lower chamber. • 4). medium exchanged on DAY1: The upper chamber and the lower chamber were exchanged with complete culture medium containing 0.1 mg/mL ascorbic acid for 9 days continuously, and the resistance value of membrane expansion was measured. […] Collected the liquid in the upper chamber and the lower chamber for detection. • 7). Calculated Papp according to the formula “Papp=dQ/(dt×A×C0)”. dQ/dt was the transport amount of drugs per unit time, which was the slope of the linear regression of cumulative drug release amount Q versus time t. A was the bottom area of the Transwell orifice plate membrane, and the bottom area was 0.33 cm^2 of 24-well plate in this experiment. Co was the initial concentration of drugs in the upper chamber (μg mL-1).
# [5] = in vitro; conditions: human, Caco-2
# Description: as §3
# [6] = Caco-2 cell membrane permeability assay; conditions: human, Caco-2
# Description: as §3
# [7] = tested on: Caco-2 cells (human colorectal adenocarcinoma cells); experiment: Caco-2 cell membrane permeability assay; conditions: Caco-2 monolayer, apical to basolateral, 100 μg/mL, 180 min
# Description: as §3
# [8] = Homo sapiens, MCF7, 72 h, read-out: Proliferation inhibition IC50
# [9] = Homo sapiens, MDA-MB-231, 72 h, read-out: Proliferation inhibition IC50
# [10] = Homo sapiens, MDA-MB-435S, 72 h, read-out: Proliferation inhibition IC50
Structure (SMILES),"IC50 [1, 8] [nM]","IC50 [2, 9] [nM]","IC50 [3, 10] [nM]","Papp A→B at 180 min, 100 μg/mL [5] [×10⁻⁶ cm/s]","Papp A→B at 180 min, 100 μg/mL [6] [×10⁻⁶ cm/s]",other results
CC[C@@]1(O)C(=O)OCc2c1cc1n(c2=O)Cc2c-1nc1cc(F)c(C)cc1c2[C@@H](C)N [Example 1],5.2,8.2,0.75,100,,"IC50 ([1]; Homo sapiens, MCF7, read-out: MCF-7 Proliferation inhibition IC50): 5.2 nM; IC50 ([2]; Homo sapiens, MDA-MB-231, read-out: MDA-MB-231 Proliferation inhibition IC50): 8.2 nM; IC50 ([3]; Homo sapiens, MDA-MB-435S, read-out: MDA-MB-435s Proliferation inhibition IC50): 0.75 nM; Permeability compared with reference compounds (in words) [4]: obvious advantages over SN38 and exatecan"
"CC[C@@]1(O)C(=O)OCc2c1cc1n(c2=O)Cc2c-1nc1cc(F)c(C)c3c1c2[C@@H](N)CC3 [Compound B, Exatecan, reference compound]",5.5,30.9,2.52,,68.6,
"CCc1c2c(nc3ccc(O)cc13)-c1cc3c(c(=O)n1C2)COC(=O)[C@]3(O)CC [SN38, reference compound]",,,,,,"IC50 ([1]; MCF-7 cells, 72 h after adding the drug, Table 1, read-out: Proliferation inhibition IC50): 22.5 nM; IC50 ([2]; MDA-MB-231 cells, 72 h after adding the drug, Table 2, read-out: Proliferation inhibition IC50): 124 nM; IC50 ([3]; MDA-MB-435s cells, 72 h after adding the drug, Table 3, read-out: Proliferation inhibition IC50): 6.89 nM; Permeability Coefficient (Papp 10^−6 cm/s) A→B [7]: 46.8 10^−6 cm/s"
CC[C@@]1(O)C(=O)OCc2c1cc1n(c2=O)Cc2c-1nc1cc(F)c(C)cc1c2[C@H](C)O [Example 12c],3.5,6.6,0.7,96,,Permeability compared with reference compounds (in words) [4]: obvious advantages over SN38 and exatecan
COCCc1ccc(OCC(O)CNC(C)C)cc1 (stereo not drawn) [Metoprolol Tartrate],,,,,193,
"CC[C@@]1(O)C(=O)OCc2c1cc1n(c2=O)Cc2c-1nc1cc(F)c(C)c3c1c2[C@@H](NC(=O)CO)CC3 [Dxd, reference compound]",20.3,101,5.12,,42,
CC[C@@]1(O)C(=O)OCc2c1cc1n(c2=O)Cc2c-1nc1cc(F)c(C)cc1c2[C@@H](C)NC(=O)CO [Example 13b],,130,3.9,56.1,,"IC50 ([1]; Homo sapiens, MCF7, MCF-7 cells, 72 h after adding the drug, Table 1, read-out: Proliferation inhibition IC50): 25.6 nM"
